Experimental data as given in patent US7432296B2, “Pharmaceutical formulations containing substituted 2-aryl-aminoacetic acid compounds and/or substituted 2-heteroaryl-aminoacetic acid compounds” (Gruenenthal GmbH, priority 2003, dated 2008).
Counter-ions that a name gives are not always drawn.

Tests used:
[1] = molecular target: T1, glycine binding site of the NMDA receptor channel (Rattus norvegicus, UniProt P35439); assay: Receptor binding study (glycineB binding site of the NMDA receptor channel), displacement of (3H)-MDL 105.519; conditions: 10 μM of compound, rat brain membrane homogenate (cortex and hippocampus); for inhibition at 10 µM: read-out: Inhibition % (percentage fraction of bound radioactive ligand displaced from its specific binding)
T1 construct: from tissue; host or cells: rat brain cortex and hippocampus membrane homogenate (male Wistar rats)
Method: (a) Receptor Binding Study (GlycineB Binding Site of the NMDA Receptor Channel)
The affinity of the compounds of the general formula I used according to the invention for the glycine binding site of the NMDA receptor channel is determined using brain membrane homogenates (homogenate of cortex and hippocampus area from the brain of male rats, Wistar strain), as for example described in B. M. Baron, B. W. Siegel, B. L. Harrison, R. S. Gross, C. […] The corresponding literature description is hereby introduced as a reference and is deemed to be part of the disclosure.
To this end, the cortex and hippocampus are dissected out of freshly harvested rat brains and homogenised with ice cooling in 5 mmol/l of TRIS-acetate buffer, 0.32 mol/l of sucrose, pH 7.4 (10 ml/g fresh weight) using a Potter homogeniser (Braun/Melsungen, 10 piston strokes at 500 rpm) and then centrifuged for 10 minutes at 1,000 g and 4° C. The first supernatant is collected and the sediment again homogenised with ice cooling with 5 mmol/l of tris-acetate buffer, 0.32 mol/l of sucrose, pH 7.4 (5 ml/g of original fresh weight) with the Potter homogeniser (10 piston strokes at 500 rpm) and centrifuged for 10 minutes at 1,000 g and 4° C. The resultant supernatant is combined with the supernatant from the first centrifugation and centrifuged at 17.000 g for 20 minutes at 4° C. The supernatant after this centrifugation is discarded and the membrane sediment resuspended with 5 mmol/l of TRIS-acetate buffer, pH 8.0 (20 ml/g of original fresh weight) and homogenised with 10 piston strokes at 500 rpm.
The membrane homogenate is then incubated for 1 hour at 4° C. and centrifuged for 30 minutes at 50,000 g and 4° C. The supernatant is discarded and the centrifuge tubes containing the membrane sediment are sealed with Parafilm and frozen for 24 hours at −20° C. On the following day, the membrane sediment is thawed and resuspended with ice-cold 5 mmol/l TRIS-acetate buffer, 0,1% saponin (wt./vol.), pH 7.0 (10 ml/g of original fresh weight) and homogenised with 10 piston strokes at 500 rpm and then centrifuged for 20 minutes at 50.000 g and 4° C. The resultant supernatant is discarded and the sediment resuspended in a small volume with 5 mmol/l of TRIS-acetate buffer, pH 7.0 (approx. 2 ml/g of original fresh weight) and again homogenised with 10 piston strokes at 500 rpm. After determination of the protein content, the membrane homogenate is adjusted with 5 mmol/l TRIS-acetate buffer, pH 7.0, to a protein concentration of 10 mg of protein/ml and frozen in aliquots until used for testing.
The receptor binding test is performed by thawing aliquots, diluting them 1:10 with 5 mmol/l TRIS-acetate buffer, pH 7.0, homogenising them with ice-cooling with 10 piston strokes at 500 rpm with the Potter homogeniser (10 piston strokes at 500 rpm) and centrifuging them for 60 minutes at 55,000 g at 4° C. The supernatant is decanted and the membrane sediment adjusted with ice-cold 50 mmol/l TRIS-acetate buffer, pH 7.0, to a protein concentration of 1 mg/ml and again homogenised with 10 piston strokes at 500 rpm and kept in suspension in an ice bath with stirring on a magnetic stirrer. This membrane homogenate is used in the receptor binding test in a quantity of 100 µl per 1 ml batch (0.1 mg of protein/ml in the final batch). […] The level of nonspecific binding is determined in the presence of 1 mmol/l of glycine.
In further batches, the compounds used according to the invention are added in concentration series and the displacement of the radioactive ligand from its specific binding at the glycine-binding site of the NMDA receptor channel is determined. Each of the triplicate batches is incubated for 120 minutes at 4° C. and then harvested by filtration through glass fibre filter mats (GF/B) in order to determine the radioactivity bound to the membrane homogenate.

[2] = system: formaldehyde-induced nociception; assay: Formaldehyde test (mouse), second (late) phase; format: in vivo; conditions: male NMRI mice, percentage change of the control
Method: (b) Formaldehyde Test (Mouse)
The investigations for determining the antinociceptive action of the substituted 2-arylaminoacetic acid compounds and/or substituted 2-heteroarylaminoacetic acid compounds of the above general formula I used according to the invention are carried out by the formaldehyde test on male albino mice (NMRI, 25-35 g, Iffa, Credo, Belgium).
In the formaldehyde test, a distinction is drawn between the first (early) phase (0-15 min after formaldehyde injection) and the second (late) phase (15-60 min after formaldehyde injection) (D. Dubuisson et al., Pain, vol. 4, pp. 161-174 (1977)). The early phase, being a direct response to the formaldehyde injection, is considered to be a model of acute pain, while the late phase is considered to be a model of persistent (chronic) pain (T. J. Coderre et al., Pain, vol. 52, pp. 259-285 (1993)). The corresponding literature descriptions are hereby introduced as a reference and are deemed to be part of the disclosure. […]
For the investigation period in the second (late) phase of the formaldehyde test, nociceptive behaviour is continuously recorded by observing the animals. […] On the basis of the quantification of the pain behaviour, action in the formaldehyde test is determined as a percentage change of the control. […]

O=C(O)C(Nc1cc(Cl)cc(Cl)c1)c1cccc2c1sc1ccccc12 (centres unmarked) [Example 2, (Dibenzothiophen-4-yl)-(3,5-dichlorophenylamino)acetic acid]
inhibition at 10 µM [1]: 33%

CSc1ccc(C(Nc2cc(Cl)cc(Cl)c2)C(=O)O)cc1 (centres unmarked) [Example 6, (3,5-Dichlorophenylamino)-(4-methylsulfanylphenyl)acetic acid]
Inhibition % (percentage fraction of bound radioactive ligand displaced from its specific binding) [1]: 87%
Inhibition (at dose) ([2]; at 46.4 mg/kg): 31% (at 46.4 mg/kg)

O=C(O)C(Nc1cc(Cl)cc(Cl)c1)c1cccc2c1Oc1ccccc1S2 (centres unmarked) [Example 10, (3,5-Dichlorophenylamino)-(phenoxathiin-4-yl)acetic acid, sodium salt]
inhibition at 10 µM [1]: 38%

O=C(O)C(Nc1cc(Cl)cc(Cl)c1)c1cccc2c1Sc1ccccc1S2 (centres unmarked) [Example 11, (3,5-Dichlorophenylamino)-(thianthren-1-yl)acetic acid, sodium salt]
inhibition at 10 µM [1]: 25%

CSc1ccccc1C(Nc1cc(Cl)cc(Cl)c1)C(=O)[O-].[Na+] (centres unmarked) [Example 12, (3,5-Dichlorophenylamino)-(2-methylsulfanylphenyl)acetic acid, sodium salt]
inhibition at 10 µM [1]: 39%
Inhibition (at dose) ([2]; at 31.6 mg/kg): 66% (at 31.6 mg/kg)

CSc1ccc(C(Nc2cc(Cl)cc(Cl)c2)C(=O)O)cc1 (centres unmarked) [Example 13, (3,5-Dichlorophenylamino)-(4-methylsulfanylphenyl)acetic acid, sodium salt]
inhibition at 10 µM [1]: 83%
